Columns and labels:
L6 [1] = experiment: Induction of mitochondrial uncoupling in rat L6 cells assessed as stimulation of cellular oxygen consumption relative to control; assay type: functional
L6 [2] = experiment: Induction of mitochondrial uncoupling in rat L6 cells assessed as stimulation of cellular oxygen consumption; assay type: functional, cell-based
[3] = Rattus norvegicus, L6, read-out: EC50

SMILES: c1ccc(Oc2nc3nonc3nc2Oc2ccccc2)cc1
- %max (L6 [1]): 98.3%
- EC50 (L6 [2]; l6): ND(Insoluble)

SMILES: CCCCCCNc1nc2nonc2nc1NCCCCCC
- %max (L6 [1]): 160.2%
- EC50 (L6 [2]; l6): ND(Insoluble)

SMILES: c1ccc(Nc2nc3nonc3nc2Nc2ccccn2)nc1
- EC50 (L6 [2]; l6): ND(Insoluble)

SMILES: Fc1ccc(Nc2nc3nonc3nc2Nc2ccc(F)cc2F)c(F)c1
- %max (L6 [1]): 222.6%
- EC50 (L6 [2]; [3]): 40 nM

SMILES: Fc1ccccc1Oc1nc2nonc2nc1Oc1ccccc1F
- %max (L6 [1]): 93%
- EC50 (L6 [2]; l6): ND(Insoluble)

SMILES: Clc1ccc(Nc2nc3nonc3nc2Nc2ccc(Cl)cc2)cc1
- %max (L6 [1]): 190.4%
- EC50 (L6 [2]; [3]): 270 nM

SMILES: Fc1ccc(Nc2nc3nonc3nc2Nc2ccc(F)cc2)cc1
- %max (L6 [1]): 204%
- EC50 (L6 [2]; [3]): 460 nM

SMILES: Fc1cccc(Nc2nc3nonc3nc2Nc2cccc(F)c2)c1
- %max (L6 [1]): 220.8%
- EC50 (L6 [2]; [3]): 180 nM

SMILES: CCONc1nc2nonc2nc1NOCC
- %max (L6 [1]): 100%
- EC50 (L6 [2]; l6): ND(Insoluble)

SMILES: CCCCNc1nc2nonc2nc1NCCCC
- %max (L6 [1]): 116%
- EC50 (L6 [2]; l6): ND(Insoluble)

SMILES: c1ccc(Nc2nc3nonc3nc2Nc2ccccc2)cc1
- %max (L6 [1]): 172.8%
- EC50 (L6 [2]; l6): ND(Insoluble)

SMILES: CCCNc1nc2nonc2nc1NCCC
- %max (L6 [1]): 98%
- EC50 (L6 [2]; l6): ND(Insoluble)

SMILES: FC(F)(F)CONc1nc2nonc2nc1NOCC(F)(F)F
- %max (L6 [1]): 96.3%
- EC50 (L6 [2]; l6): ND(Insoluble)

SMILES: Ic1ccccc1Oc1nc2nonc2nc1Oc1ccccc1I
- %max (L6 [1]): 98.8%
- EC50 (L6 [2]; l6): ND(Insoluble)

Reference: ChEMBL document CHEMBL3627668, “Structure-activity relationships of furazano[3,4-b]pyrazines as mitochondrial uncouplers” (Bioorg Med Chem Lett, 2015)
